Laboratory results from publication PMC4008261, “Rewiring of regenerated axons by combining treadmill training with semaphorin3A inhibition” (Molecular Brain, 2014).

What was measured:
semaphorin3A [1] = target: T1, semaphorin3A (Homo sapiens, UniProt Q14563); assay: Growth cone collapse assay, E8 chick DRG; format: cell-based; set-up: expressed in transfected cells; host or cells: COS7; conditions: read-out: semaphorin3A inhibiting activity, IC50
T1 sequence (Q14563 21-771): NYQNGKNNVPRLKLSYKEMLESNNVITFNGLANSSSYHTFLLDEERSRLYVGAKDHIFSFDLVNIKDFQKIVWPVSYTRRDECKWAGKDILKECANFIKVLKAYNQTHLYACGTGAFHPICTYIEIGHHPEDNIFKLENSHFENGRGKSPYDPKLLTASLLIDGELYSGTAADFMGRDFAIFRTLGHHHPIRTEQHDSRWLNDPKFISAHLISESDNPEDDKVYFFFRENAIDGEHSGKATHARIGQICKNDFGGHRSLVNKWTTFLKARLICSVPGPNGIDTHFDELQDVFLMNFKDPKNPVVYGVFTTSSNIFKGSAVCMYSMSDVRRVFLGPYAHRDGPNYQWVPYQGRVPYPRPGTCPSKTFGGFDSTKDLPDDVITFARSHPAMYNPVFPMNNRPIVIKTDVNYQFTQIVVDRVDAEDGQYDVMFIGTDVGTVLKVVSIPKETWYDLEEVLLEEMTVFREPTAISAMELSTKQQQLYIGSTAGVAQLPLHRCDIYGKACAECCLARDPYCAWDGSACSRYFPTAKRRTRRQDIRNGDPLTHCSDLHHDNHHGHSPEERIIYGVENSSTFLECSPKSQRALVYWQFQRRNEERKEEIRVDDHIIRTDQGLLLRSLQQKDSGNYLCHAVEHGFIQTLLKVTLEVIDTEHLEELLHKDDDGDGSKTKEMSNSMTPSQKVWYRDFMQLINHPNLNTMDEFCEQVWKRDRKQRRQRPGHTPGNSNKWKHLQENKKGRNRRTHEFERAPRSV
Procedure: (§1) The growth cone collapse assay and collagen co-culture experiments were performed as previously described. To examine the effects of SM-345431-silicone, small pieces (2 × 1 × 0.3 mm; approximately 1 mg containing 1 μg of SM-345431) of the SM-345431-silicone or control-silicone were placed in a collagen gel adjacent to E8 chick DRGs and COS7 cell aggregates, as shown in Figure 1C.

GSK3α = GSK3α (Homo sapiens, UniProt P49840); assay: Kinase inhibition test; format: biochemical
Text: (§2) Table 2 Pharmacological profile of SM-345431 (part 2) | column: IC50 (μm)

TrkB = TrkB (Homo sapiens, UniProt Q16620); assay: Kinase inhibition test; format: biochemical
Text: as §2

FGFR3 = FGFR3 (Homo sapiens, UniProt P22607); assay: Kinase inhibition test; format: biochemical
Text: as §2

PAK4 = PAK4 (Homo sapiens, UniProt O96013); assay: Kinase inhibition test; format: biochemical
Text: as §2

PKBβ = PKBβ (Homo sapiens, UniProt P31751); assay: Kinase inhibition test; format: biochemical
Text: as §2

Chemokine CCR2B = Chemokine CCR2B (Homo sapiens, UniProt P41597); assay: Pharmacological profile: receptor binding assay
Text: (§3) Table 1 Pharmacological profile of SM-345431 (part 1) | column: IC50 (μm)

[2] = target: Tumor Necrosis Factor (TNF), Non-selective; assay: Pharmacological profile: receptor binding assay
Text: as §3

Chemokine CCR1 = Chemokine CCR1 (Homo sapiens, UniProt P32246); assay: Pharmacological profile: receptor binding assay
Text: as §3

Glucocorticoid = Glucocorticoid (Homo sapiens, UniProt P04150); assay: Pharmacological profile: receptor binding assay
Text: as §3

Chemokine CCR4 = Chemokine CCR4 (Homo sapiens, UniProt P51679); assay: Pharmacological profile: receptor binding assay
Text: as §3

Chemokine CCR5 = Chemokine CCR5 (Homo sapiens, UniProt P51681); assay: Pharmacological profile: receptor binding assay
Text: as §3

Chemokine CXCR2 (IL-8B) = Chemokine CXCR2 (IL-8B) (Homo sapiens, UniProt P25025); assay: Pharmacological profile: receptor binding assay
Text: as §3

[3] = system: Cell proliferation, B-Cell+LPS; assay: Pharmacological profile: cell proliferation; format: cell-based
Text: as §3

[4] = system: Cell proliferation, T-Cell+Con A; assay: Pharmacological profile: cell proliferation; format: cell-based
Text: as §3

semaphorin3A [5] = target: T1, semaphorin3A; assay: Collagen co-culture assay (E8 chick DRGs and semaphorin3A-expressing COS7 cell aggregates); format: cell-based; set-up: expressed in transfected cells; host or cells: COS7; conditions: chick embryonic DRG explants co-cultured with semaphorin3A-COS in collagen gel
Procedure: as §1

[6] = system: Adhesion, ICAM-1-Mediated; assay: Pharmacological profile: cell adhesion; format: cell-based
Text: as §3

[7] = system: Adhesion, fibronectin-mediated; assay: Pharmacological profile: cell adhesion; format: cell-based
Text: as §3

[8] = system: Adhesion, VCAM-1-Mediated; assay: Pharmacological profile: cell adhesion; format: cell-based
Text: as §3

[9] = target: Matrix Metalloproteinase-7 (MMP-7) (Homo sapiens, UniProt P09237); assay: Pharmacological profile: enzyme inhibition; format: biochemical
Text: as §3

[10] = target: Protein Tyrosine Phosphatase, PTP1B (Homo sapiens, UniProt P18031); assay: Pharmacological profile: enzyme inhibition; format: biochemical
Text: as §3

Caspase 1 = Caspase 1 (Homo sapiens, UniProt P29466); assay: Pharmacological profile: enzyme inhibition; format: biochemical
Text: as §3

Caspase 3 = Caspase 3 (Homo sapiens, UniProt P42574); assay: Pharmacological profile: enzyme inhibition; format: biochemical
Text: as §3

[11] = target: Matrix Metalloproteinase-3 (MMP-3) (Homo sapiens, UniProt P08254); assay: Pharmacological profile: enzyme inhibition; format: biochemical
Text: as §3

[12] = target: Matrix Metalloproteinase-1 (MMP-1) (Homo sapiens, UniProt P03956); assay: Pharmacological profile: enzyme inhibition; format: biochemical
Text: as §3

[13] = target: Protein Tyrosine Phosphatase, PTP1C (Homo sapiens, UniProt P29350); assay: Pharmacological profile: enzyme inhibition; format: biochemical
Text: as §3

[14] = target: Matrix Metalloproteinase-9 (MMP-9) (Homo sapiens, UniProt P14780); assay: Pharmacological profile: enzyme inhibition; format: biochemical
Text: as §3

Caspase 6 = Caspase 6 (Homo sapiens, UniProt P55212); assay: Pharmacological profile: enzyme inhibition; format: biochemical
Text: as §3

Caspase 8 = Caspase 8 (Homo sapiens, UniProt Q14790); assay: Pharmacological profile: enzyme inhibition; format: biochemical
Text: as §3

Chemokine CCR2B, sequence (P41597 1-360 isoform P41597-2): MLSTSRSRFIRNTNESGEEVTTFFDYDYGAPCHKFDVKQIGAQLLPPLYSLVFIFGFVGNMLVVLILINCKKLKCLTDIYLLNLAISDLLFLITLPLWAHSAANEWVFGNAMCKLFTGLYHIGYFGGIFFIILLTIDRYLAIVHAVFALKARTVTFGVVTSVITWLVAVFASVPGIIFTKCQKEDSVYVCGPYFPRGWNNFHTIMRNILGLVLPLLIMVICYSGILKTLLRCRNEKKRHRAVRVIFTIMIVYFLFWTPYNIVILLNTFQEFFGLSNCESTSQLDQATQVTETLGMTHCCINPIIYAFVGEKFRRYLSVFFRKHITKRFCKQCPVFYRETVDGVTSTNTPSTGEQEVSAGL
Glucocorticoid, sequence (P04150 whole entry): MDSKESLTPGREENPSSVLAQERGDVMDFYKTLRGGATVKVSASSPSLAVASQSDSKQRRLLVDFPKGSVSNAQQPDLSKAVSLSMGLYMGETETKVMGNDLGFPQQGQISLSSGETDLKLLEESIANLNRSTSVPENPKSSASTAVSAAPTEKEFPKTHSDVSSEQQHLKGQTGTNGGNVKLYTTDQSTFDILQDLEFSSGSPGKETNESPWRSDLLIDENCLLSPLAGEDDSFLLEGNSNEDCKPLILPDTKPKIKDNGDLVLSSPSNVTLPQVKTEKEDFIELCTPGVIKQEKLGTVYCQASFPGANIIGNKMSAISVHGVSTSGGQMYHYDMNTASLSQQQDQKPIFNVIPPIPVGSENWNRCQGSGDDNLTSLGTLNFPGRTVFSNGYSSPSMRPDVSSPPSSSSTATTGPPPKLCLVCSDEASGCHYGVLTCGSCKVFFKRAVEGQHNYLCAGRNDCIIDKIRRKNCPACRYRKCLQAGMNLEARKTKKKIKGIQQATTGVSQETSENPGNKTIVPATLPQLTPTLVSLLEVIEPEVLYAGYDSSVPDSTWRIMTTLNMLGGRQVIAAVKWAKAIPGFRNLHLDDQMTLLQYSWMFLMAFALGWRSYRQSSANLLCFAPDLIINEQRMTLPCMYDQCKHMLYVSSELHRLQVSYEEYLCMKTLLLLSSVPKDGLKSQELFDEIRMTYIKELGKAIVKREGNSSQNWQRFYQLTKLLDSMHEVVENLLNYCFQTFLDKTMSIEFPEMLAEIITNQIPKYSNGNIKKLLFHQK
TrkB, sequence (Q16620 32-822, species assumed): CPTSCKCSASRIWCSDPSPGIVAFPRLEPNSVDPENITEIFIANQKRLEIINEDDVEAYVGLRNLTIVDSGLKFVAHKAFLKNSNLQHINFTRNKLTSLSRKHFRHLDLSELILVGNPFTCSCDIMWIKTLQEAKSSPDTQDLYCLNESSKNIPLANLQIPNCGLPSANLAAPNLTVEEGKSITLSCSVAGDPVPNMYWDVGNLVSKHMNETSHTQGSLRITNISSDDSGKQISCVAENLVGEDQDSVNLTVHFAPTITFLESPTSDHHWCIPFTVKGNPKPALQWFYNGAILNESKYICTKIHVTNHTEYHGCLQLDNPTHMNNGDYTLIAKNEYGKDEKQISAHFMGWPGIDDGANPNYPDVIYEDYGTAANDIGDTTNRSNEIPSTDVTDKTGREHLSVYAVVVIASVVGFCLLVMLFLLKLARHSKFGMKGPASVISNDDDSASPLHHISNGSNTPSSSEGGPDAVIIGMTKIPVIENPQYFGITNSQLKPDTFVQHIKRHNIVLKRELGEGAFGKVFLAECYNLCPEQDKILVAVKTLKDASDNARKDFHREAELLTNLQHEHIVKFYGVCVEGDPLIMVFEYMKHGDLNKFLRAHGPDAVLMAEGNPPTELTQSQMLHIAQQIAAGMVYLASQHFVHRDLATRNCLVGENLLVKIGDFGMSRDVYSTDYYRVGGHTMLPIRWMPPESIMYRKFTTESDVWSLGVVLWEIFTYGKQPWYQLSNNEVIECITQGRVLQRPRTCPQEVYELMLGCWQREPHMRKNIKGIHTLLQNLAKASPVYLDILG
Matrix Metalloproteinase-1 (MMP-1), sequence (P03956 100-469, species assumed): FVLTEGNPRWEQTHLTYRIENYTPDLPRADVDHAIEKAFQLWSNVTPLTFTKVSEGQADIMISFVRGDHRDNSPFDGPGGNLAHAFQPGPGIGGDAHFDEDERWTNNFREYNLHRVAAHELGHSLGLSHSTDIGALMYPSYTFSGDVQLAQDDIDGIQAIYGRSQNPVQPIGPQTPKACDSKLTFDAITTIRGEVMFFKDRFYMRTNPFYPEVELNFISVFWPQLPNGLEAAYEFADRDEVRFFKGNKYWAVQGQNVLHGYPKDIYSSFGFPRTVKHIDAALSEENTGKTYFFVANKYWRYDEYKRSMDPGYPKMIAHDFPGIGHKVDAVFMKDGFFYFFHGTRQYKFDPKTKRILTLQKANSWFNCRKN
FGFR3, sequence (P22607 23-806, species assumed): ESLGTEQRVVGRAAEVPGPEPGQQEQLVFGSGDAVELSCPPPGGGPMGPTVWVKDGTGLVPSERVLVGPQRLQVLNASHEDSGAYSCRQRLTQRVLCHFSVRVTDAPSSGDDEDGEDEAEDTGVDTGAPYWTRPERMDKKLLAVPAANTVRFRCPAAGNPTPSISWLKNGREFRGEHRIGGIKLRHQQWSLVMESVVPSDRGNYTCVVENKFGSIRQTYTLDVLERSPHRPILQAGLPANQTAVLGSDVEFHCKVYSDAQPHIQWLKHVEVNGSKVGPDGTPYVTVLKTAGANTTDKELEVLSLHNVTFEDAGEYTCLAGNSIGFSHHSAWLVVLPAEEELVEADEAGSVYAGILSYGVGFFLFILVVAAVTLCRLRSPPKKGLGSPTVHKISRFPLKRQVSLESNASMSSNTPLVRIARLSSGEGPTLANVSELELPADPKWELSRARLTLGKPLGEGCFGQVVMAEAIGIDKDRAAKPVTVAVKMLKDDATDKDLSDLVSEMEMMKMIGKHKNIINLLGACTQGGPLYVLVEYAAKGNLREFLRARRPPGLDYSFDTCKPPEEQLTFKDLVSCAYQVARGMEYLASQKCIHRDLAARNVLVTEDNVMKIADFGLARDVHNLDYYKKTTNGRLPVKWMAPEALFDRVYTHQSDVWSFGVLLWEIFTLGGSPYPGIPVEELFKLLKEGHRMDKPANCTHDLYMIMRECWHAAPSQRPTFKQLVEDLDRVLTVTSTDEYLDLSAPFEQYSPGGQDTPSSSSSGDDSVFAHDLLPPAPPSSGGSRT
Chemokine CCR4, sequence (P51679 whole entry): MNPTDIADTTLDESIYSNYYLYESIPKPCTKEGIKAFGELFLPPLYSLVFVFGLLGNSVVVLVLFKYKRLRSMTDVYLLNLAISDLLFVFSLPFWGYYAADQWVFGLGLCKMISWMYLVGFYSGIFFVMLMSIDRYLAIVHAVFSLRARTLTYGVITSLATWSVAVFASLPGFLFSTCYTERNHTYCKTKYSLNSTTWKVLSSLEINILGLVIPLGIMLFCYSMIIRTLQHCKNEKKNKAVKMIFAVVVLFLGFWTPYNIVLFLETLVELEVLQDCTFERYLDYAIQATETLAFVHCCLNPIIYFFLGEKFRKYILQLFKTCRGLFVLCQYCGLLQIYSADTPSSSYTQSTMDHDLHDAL
Caspase 3, sequence (P42574 29-175 limits assumed, species assumed): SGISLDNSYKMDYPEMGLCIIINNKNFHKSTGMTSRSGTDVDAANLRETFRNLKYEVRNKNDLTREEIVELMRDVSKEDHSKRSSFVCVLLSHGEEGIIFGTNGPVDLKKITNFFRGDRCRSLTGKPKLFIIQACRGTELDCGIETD
Caspase 3, sequence (P42574 176-277 limits assumed, species assumed): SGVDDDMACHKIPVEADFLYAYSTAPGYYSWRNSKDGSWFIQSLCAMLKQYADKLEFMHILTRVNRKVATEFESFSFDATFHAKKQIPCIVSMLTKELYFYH
Chemokine CXCR2 (IL-8B), sequence (P25025 whole entry): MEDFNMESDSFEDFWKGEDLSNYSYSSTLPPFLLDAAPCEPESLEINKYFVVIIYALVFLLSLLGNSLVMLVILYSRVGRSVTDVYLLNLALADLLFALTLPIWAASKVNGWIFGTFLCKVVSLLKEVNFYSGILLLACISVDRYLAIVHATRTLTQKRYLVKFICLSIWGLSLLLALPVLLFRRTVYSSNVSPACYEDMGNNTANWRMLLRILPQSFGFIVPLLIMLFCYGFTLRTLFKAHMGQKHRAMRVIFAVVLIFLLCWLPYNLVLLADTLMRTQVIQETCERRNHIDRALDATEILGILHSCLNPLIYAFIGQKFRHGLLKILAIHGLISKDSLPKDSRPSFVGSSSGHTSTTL
Matrix Metalloproteinase-3 (MMP-3), sequence (P08254 100-477, species assumed): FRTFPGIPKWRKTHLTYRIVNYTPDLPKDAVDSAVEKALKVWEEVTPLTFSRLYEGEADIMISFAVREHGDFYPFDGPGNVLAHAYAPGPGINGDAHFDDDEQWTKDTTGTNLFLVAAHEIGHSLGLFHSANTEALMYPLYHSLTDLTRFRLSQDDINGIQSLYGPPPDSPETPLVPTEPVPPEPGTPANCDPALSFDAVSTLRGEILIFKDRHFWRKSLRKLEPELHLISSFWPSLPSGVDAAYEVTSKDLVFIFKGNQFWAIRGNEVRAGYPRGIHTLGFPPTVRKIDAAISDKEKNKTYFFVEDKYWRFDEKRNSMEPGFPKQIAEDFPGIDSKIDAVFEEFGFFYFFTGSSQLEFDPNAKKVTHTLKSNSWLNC
PKBβ, sequence (P31751 whole entry, species assumed): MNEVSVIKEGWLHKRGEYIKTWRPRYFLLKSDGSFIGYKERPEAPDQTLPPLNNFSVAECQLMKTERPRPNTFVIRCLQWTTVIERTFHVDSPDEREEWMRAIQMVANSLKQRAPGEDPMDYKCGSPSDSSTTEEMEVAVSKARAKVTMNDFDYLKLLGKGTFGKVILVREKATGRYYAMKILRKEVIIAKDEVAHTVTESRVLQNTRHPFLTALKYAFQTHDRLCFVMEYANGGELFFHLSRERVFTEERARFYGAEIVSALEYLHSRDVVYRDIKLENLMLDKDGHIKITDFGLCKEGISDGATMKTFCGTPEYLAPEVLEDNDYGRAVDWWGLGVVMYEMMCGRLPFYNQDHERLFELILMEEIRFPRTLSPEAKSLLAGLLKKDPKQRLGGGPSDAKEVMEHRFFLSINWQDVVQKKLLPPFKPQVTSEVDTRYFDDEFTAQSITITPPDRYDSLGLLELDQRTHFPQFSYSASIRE

## CC(=O)c1cc2c(=O)c3c(C(=O)O)c(O)c(O)cc3oc2c(C(C)=O)c1-c1coc2cc(O)c(O)c(C(=O)O)c2c1=O [SM-345431, Vinaxanthone]
semaphorin3A [1]
  IC50: 0.1 to 0.2 µM
GSK3α
  IC50: 2.46 µM
TrkB
  IC50: > 10 µM
FGFR3
  IC50: 0.77 µM
PAK4
  IC50: > 10 µM
PKBβ
  IC50: > 10 µM
Chemokine CCR2B
  IC50: > 10 µM
[2]
  IC50: > 10 µM
Chemokine CCR1
  IC50: > 10 µM
Glucocorticoid
  IC50: > 10 µM
Chemokine CCR4
  IC50: > 10 µM
Chemokine CCR5
  IC50: > 10 µM
Chemokine CXCR2 (IL-8B)
  IC50: > 10 µM
[3]
  IC50: > 10 µM
[4]
  IC50: > 10 µM
semaphorin3A [5]
  block of the chemo-repulsive effects of semaphorin3A on DRG neurites: chemo-repulsive effects of semaphorin3A were blocked by SM-345431 in a dose-dependent manner
[6]
  IC50: > 10 µM
[7]
  IC50: > 10 µM
[8]
  IC50: > 10 µM
[9]
  IC50: 10 µM
[10]
  IC50: > 10 µM
Caspase 1
  IC50: > 10 µM
Caspase 3
  IC50: > 10 µM
[11]
  IC50: > 10 µM
[12]
  IC50: > 10 µM
[13]
  IC50: > 10 µM
[14]
  IC50: > 10 µM
Caspase 6
  IC50: > 10 µM
Caspase 8
  IC50: > 10 µM
